According to ChEMBL document CHEMBL3627617, “Investigation of new 2-aryl substituted Benzothiopyrano[4,3-d]pyrimidines as kinase inhibitors targeting vascular endothelial growth factor receptor 2” (Eur J Med Chem, 2015):

Legend:
HeLa = test: Antiproliferative activity against human HeLa cells assessed as cell viability after 72 hrs by trypan blue assay; format: functional
A-431 = test: Antiproliferative activity against human A431 cells assessed as cell viability after 72 hrs by trypan blue assay; format: functional; conditions: A-431, 72 h
MSTO-211H = test: Antiproliferative activity against human MSTO-211H cells assessed as cell viability after 72 hrs by trypan blue assay; format: functional
HUVEC = test: Antiproliferative activity against human HUVEC cells assessed as reduction in cell viability after 72 hrs by trypan blue assay; format: functional
[1] = biological target: Vascular endothelial growth factor receptor 2 (Homo sapiens, UniProt P35968); test: Inhibition of human KDR incubated for 50 mins by omnia tyr peptide 8 substrate based fluorescence assay
Aorta [2] = test: Anti-angiogenic activity in rat aortic explant assessed as microvessel sprouting inhibition at 100 nM incubated for 7 days by rat aortic ring assay; format: functional; conditions: 168 h
Aorta [3] = test: Anti-angiogenic activity in rat aortic explant assessed as microvessel sprouting inhibition at 1 uM incubated for 7 days by rat aortic ring assay; format: functional; conditions: 168 h
Aorta [4] = test: Anti-angiogenic activity in rat aortic explant assessed as microvessel sprouting inhibition at 5 uM incubated for 7 days by rat aortic ring assay; format: functional; conditions: 168 h
Aorta [5] = test: Anti-angiogenic activity in rat aortic explant assessed as microvessel sprouting inhibition at 10 uM incubated for 7 days by rat aortic ring assay; format: functional; conditions: 168 h
[6] = biological target: RAC-alpha serine/threonine-protein kinase (Homo sapiens) (UniProt P31749); test: Inhibition of human Akt1 at 10 uM by kinase inhibition assay
[7] = biological target: T1, Aurora kinase A (Homo sapiens) (UniProt O14965); test: Inhibition of human AurA kinase at 10 uM by kinase inhibition assay
T1 sequence (whole entry): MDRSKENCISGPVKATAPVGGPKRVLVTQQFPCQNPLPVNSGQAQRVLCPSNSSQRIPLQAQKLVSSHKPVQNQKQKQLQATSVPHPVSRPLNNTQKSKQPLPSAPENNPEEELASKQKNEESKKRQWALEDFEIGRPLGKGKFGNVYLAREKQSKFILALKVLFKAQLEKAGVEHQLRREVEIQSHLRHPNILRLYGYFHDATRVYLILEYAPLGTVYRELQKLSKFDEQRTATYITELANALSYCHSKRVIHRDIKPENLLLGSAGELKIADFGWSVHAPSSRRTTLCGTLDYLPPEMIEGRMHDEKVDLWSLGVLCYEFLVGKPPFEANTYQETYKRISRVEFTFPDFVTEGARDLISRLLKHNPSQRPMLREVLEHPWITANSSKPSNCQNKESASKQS

[8] = biological target: Cyclin-dependent kinase 1 (Homo sapiens) (UniProt P06493); test: Inhibition of human CDK1 at 10 uM by kinase inhibition assay
[9] = biological target: Mitogen-activated protein kinase 3 (Homo sapiens) (UniProt P27361); test: Inhibition of human ERK1 at 10 uM by kinase inhibition assay
[10] = biological target: Focal adhesion kinase 1 (Homo sapiens) (UniProt Q05397); test: Inhibition of human FAK at 10 uM by kinase inhibition assay
[11] = biological target: Dual specificity mitogen-activated protein kinase kinase 1 (Homo sapiens) (UniProt Q02750); test: Inhibition of human MEK1 at 10 uM by kinase inhibition assay
[12] = biological target: Platelet-derived growth factor receptor beta (Homo sapiens) (UniProt P09619); test: Inhibition of human PDGFRbeta at 10 uM by kinase inhibition assay
[13] = biological target: RAF proto-oncogene serine/threonine-protein kinase (Homo sapiens) (UniProt P04049); test: Inhibition of human RAF1 at 10 uM by kinase inhibition assay
[14] = biological target: Rho-associated protein kinase 1 (Homo sapiens) (UniProt Q13464); test: Inhibition of human ROCK1 at 10 uM by kinase inhibition assay
[15] = biological target: Proto-oncogene tyrosine-protein kinase Src (Homo sapiens) (UniProt P12931); test: Inhibition of human Src kinase at 10 uM by kinase inhibition assay
[16] = biological target: Epidermal growth factor receptor (Homo sapiens, UniProt P00533)

Vascular endothelial growth factor receptor 2, sequence (P35968 whole entry): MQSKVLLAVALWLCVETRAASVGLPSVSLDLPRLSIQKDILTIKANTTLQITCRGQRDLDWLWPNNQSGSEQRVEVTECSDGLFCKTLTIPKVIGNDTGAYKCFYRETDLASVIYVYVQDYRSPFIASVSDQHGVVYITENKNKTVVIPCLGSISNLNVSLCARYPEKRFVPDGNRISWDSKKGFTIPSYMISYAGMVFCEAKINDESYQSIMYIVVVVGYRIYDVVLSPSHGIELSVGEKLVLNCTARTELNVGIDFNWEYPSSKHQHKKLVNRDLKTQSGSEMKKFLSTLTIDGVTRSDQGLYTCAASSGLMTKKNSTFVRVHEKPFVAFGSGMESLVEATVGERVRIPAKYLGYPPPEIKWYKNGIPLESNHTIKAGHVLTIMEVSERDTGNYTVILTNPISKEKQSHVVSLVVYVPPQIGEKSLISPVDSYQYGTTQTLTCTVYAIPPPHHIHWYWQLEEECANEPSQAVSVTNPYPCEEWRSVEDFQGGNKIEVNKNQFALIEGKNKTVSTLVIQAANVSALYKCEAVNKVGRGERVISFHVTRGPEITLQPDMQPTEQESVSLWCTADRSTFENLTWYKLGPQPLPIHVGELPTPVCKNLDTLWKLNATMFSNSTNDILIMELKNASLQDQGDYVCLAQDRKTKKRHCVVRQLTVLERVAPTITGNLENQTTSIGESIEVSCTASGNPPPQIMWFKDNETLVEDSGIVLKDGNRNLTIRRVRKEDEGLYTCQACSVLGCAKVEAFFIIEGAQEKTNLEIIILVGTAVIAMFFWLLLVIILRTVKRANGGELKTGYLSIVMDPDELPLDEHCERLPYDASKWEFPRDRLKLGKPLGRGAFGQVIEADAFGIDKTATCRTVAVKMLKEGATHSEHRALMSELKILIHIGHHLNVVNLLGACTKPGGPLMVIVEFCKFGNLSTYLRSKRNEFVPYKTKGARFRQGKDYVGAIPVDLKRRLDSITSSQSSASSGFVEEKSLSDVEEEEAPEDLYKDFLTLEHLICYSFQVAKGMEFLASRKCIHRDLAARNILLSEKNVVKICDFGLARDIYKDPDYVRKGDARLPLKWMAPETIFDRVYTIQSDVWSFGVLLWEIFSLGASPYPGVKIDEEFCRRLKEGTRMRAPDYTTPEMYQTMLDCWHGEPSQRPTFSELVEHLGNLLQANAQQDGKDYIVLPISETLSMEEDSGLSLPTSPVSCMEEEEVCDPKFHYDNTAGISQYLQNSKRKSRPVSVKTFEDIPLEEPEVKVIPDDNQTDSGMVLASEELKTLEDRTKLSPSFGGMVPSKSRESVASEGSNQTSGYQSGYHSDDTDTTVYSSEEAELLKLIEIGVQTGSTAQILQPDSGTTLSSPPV
Proto-oncogene tyrosine-protein kinase Src (Homo sapiens), sequence (P12931 2-536 limits assumed): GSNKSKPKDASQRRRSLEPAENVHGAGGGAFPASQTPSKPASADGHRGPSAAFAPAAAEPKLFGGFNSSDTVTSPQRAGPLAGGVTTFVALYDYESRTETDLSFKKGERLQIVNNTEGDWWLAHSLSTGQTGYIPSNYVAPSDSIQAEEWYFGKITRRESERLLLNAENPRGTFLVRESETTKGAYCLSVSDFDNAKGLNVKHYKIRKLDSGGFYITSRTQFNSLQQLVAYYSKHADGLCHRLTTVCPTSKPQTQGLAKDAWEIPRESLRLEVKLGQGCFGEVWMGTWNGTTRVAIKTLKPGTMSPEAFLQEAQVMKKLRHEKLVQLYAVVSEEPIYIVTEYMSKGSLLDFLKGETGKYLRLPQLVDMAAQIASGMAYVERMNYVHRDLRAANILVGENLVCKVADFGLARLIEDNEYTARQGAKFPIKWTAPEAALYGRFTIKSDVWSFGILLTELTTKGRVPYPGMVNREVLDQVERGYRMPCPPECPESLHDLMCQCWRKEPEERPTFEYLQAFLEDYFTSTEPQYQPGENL
Focal adhesion kinase 1 (Homo sapiens), sequence (Q05397 2-1052 limits assumed): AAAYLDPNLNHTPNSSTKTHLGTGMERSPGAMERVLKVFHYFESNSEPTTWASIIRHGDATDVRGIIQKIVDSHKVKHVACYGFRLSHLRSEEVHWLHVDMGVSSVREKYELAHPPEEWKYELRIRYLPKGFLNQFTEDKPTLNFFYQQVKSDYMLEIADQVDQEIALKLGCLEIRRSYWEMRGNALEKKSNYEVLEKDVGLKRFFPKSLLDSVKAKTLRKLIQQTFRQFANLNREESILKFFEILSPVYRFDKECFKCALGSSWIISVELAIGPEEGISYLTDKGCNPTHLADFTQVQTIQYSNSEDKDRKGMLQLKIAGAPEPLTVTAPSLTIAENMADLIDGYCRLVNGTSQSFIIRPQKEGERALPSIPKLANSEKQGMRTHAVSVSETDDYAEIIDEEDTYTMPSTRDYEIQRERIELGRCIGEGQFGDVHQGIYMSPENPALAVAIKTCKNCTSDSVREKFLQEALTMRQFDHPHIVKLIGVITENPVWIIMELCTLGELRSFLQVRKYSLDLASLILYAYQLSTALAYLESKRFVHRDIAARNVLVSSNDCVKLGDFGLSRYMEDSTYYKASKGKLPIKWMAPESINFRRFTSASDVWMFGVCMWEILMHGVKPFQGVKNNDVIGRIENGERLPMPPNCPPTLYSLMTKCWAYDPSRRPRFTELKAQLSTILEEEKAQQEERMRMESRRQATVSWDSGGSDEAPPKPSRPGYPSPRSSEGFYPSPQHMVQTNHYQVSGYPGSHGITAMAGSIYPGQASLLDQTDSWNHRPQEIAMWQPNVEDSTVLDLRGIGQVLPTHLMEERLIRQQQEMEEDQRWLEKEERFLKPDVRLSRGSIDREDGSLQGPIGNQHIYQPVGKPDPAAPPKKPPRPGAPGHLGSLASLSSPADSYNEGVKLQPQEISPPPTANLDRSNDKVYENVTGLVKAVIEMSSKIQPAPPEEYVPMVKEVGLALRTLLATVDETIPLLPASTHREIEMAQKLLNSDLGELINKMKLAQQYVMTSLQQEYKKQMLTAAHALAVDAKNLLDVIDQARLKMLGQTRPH
RAC-alpha serine/threonine-protein kinase (Homo sapiens), sequence (P31749 whole entry): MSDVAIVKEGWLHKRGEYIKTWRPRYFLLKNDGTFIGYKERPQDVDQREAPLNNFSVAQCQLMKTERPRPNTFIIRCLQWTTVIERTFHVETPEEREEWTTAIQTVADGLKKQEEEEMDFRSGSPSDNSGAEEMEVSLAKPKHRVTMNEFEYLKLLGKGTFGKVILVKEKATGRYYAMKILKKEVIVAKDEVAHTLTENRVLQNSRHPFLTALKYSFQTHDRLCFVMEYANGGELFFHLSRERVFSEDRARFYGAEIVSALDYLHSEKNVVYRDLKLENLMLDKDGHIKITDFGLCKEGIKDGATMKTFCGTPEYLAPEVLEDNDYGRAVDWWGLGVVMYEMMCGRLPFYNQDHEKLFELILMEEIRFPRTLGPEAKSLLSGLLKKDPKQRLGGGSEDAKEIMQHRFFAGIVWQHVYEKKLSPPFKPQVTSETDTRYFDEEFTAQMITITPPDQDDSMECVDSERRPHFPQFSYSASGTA
Mitogen-activated protein kinase 3 (Homo sapiens), sequence (P27361 whole entry): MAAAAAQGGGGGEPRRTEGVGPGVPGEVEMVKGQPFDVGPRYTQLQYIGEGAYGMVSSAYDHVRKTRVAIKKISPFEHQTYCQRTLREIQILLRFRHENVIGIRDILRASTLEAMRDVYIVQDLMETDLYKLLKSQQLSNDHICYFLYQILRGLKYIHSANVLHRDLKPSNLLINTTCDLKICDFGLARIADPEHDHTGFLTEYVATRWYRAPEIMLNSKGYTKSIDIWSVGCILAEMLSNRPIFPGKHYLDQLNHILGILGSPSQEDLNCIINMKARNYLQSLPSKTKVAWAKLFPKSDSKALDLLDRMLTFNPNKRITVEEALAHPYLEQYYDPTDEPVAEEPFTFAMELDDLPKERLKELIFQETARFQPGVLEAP
Platelet-derived growth factor receptor beta (Homo sapiens), sequence (P09619 whole entry): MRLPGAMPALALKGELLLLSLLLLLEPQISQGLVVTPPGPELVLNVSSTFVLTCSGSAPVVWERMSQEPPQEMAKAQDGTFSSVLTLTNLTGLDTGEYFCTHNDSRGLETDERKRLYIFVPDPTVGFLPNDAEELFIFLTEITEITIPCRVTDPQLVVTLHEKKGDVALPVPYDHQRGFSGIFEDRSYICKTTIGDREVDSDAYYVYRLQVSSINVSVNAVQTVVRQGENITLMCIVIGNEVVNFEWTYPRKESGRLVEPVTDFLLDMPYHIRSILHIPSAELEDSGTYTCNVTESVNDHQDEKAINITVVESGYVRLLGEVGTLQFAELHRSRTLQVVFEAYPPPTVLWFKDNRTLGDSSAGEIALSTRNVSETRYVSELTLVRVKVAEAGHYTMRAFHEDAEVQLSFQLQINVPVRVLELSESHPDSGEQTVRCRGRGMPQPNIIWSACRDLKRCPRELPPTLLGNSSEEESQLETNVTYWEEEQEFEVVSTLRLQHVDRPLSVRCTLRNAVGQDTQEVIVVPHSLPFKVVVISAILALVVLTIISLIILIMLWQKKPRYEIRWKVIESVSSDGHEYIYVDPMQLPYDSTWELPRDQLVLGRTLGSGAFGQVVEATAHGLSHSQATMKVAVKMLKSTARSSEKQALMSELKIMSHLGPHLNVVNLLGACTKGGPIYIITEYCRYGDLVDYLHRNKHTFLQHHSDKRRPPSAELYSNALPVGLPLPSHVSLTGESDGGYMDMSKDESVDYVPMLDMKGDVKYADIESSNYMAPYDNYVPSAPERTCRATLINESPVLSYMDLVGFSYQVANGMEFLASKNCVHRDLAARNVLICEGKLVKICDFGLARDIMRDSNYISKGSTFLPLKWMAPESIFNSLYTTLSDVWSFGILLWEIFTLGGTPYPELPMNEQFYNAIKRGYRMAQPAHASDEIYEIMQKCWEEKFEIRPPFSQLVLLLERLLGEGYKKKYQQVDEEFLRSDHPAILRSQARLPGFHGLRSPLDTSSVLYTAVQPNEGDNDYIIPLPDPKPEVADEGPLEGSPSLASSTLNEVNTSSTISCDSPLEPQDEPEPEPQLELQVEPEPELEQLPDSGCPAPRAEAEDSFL

Compound COc1ccc2c(c1)SCc1cnc(NCc3ccc(Cl)cc3)nc1-2 has a GI50 (HeLa) greater than 20 µM, a GI50 (A-431) greater than 20 µM and a GI50 (MSTO-211H) greater than 20 µM. The GI50 (HUVEC) was greater than 20 µM.

Work on Clc1ccc2c(c1)SCc1cnc(NCc3ccccc3)nc1-2 yielded a GI50 (HeLa) greater than 20 µM, a GI50 (A-431) greater than 20 µM and a GI50 (MSTO-211H) greater than 20 µM. For the same compound, the GI50 (HUVEC) was 15.1 µM.

COc1ccc(Nc2ncc3c(n2)-c2ccc(OC)cc2SC3)cc1 was tested, and the GI50 (HeLa) was 0.83 µM, the GI50 (A-431) was 0.96 µM and the GI50 (MSTO-211H) was 1.08 µM. It also gave an IC50 [1] of 17.5 µM and a GI50 (HUVEC) of 0.74 µM.

Clc1ccc(-c2ncc3c(n2)-c2ccc(Cl)cc2SC3)cc1 gave a GI50 (HeLa) greater than 20 µM, a GI50 (A-431) greater than 20 µM and a GI50 (MSTO-211H) greater than 20 µM. It also gave a GI50 (HUVEC) of 15.3 µM.

COc1ccc2c(c1)SCc1cnc(Nc3ccccc3)nc1-2 showed a GI50 (HeLa) of 20.1 µM, a GI50 (A-431) greater than 20 µM and a GI50 (MSTO-211H) of 15 µM. It also gave an IC50 [1] greater than 50 µM and a GI50 (HUVEC) of 4.3 µM.

COc1ccc(Nc2ncc3c(n2)-c2ccccc2SC3)cc1 was tested, and the GI50 (HeLa) was 0.7 µM, the GI50 (A-431) was 0.96 µM and the GI50 (MSTO-211H) was 1.08 µM. The GI50 (HUVEC) was 0.45 µM, the inhibition at 0.1 µM (Aorta [2]) was -8% and the inhibition at 1 µM (Aorta [3]) was 9%. For the same compound, the inhibition at 5 µM (Aorta [4]) was 95%, the inhibition at 10 µM (Aorta [5]) was 96% and the inhibition [6] was 1.4%. For the same compound, the inhibition [7] was 71.7%, the inhibition [8] was 84.8% and the inhibition [9] was -1.8%. The inhibition [10] was 47.3%, the inhibition [11] was 21.6% and the inhibition [12] was 42%. The inhibition [13] was 4.1%, the inhibition [14] was -0.4% and the inhibition [15] was 12%.

COc1ccc2c(c1)SCc1cnc(Nc3ccc(Cl)cc3)nc1-2 was tested, and the GI50 (HeLa) was greater than 20 µM, the GI50 (A-431) was greater than 20 µM and the GI50 (MSTO-211H) was greater than 20 µM. For the same compound, the IC50 [1] was greater than 50 µM and the GI50 (HUVEC) was greater than 20 µM.

Work on COc1ccc(CNc2ncc3c(n2)-c2ccc(Cl)cc2SC3)cc1 yielded a GI50 (HeLa) greater than 20 µM, a GI50 (A-431) greater than 20 µM and a GI50 (MSTO-211H) greater than 20 µM. For the same compound, the GI50 (HUVEC) was 12 µM.

Work on COc1ccc(-c2ncc3c(n2)-c2ccc(OC)cc2SC3)cc1 yielded a GI50 (HeLa) greater than 20 µM, a GI50 (A-431) greater than 20 µM and a GI50 (MSTO-211H) greater than 20 µM. The GI50 (HUVEC) was 4.8 µM.

Clc1ccc(CNc2ncc3c(n2)-c2ccc(Cl)cc2SC3)cc1 showed a GI50 (HeLa) greater than 20 µM, a GI50 (A-431) greater than 20 µM and a GI50 (MSTO-211H) greater than 20 µM. The GI50 (HUVEC) was 17 µM.

Compound Clc1ccc(Nc2ncc3c(n2)-c2ccccc2SC3)cc1 has a GI50 (HeLa) of 15.6 µM, a GI50 (A-431) greater than 20 µM and a GI50 (MSTO-211H) of 11.5 µM. The IC50 [1] was greater than 50 µM and the GI50 (HUVEC) was 7.3 µM.

Compound Clc1ccc2c(c1)SCc1cnc(Nc3ccccc3)nc1-2 has a GI50 (HeLa) greater than 20 µM, a GI50 (A-431) greater than 20 µM and a GI50 (MSTO-211H) greater than 20 µM. It also gave an IC50 [1] greater than 50 µM and a GI50 (HUVEC) greater than 20 µM.

COc1ccc(CNc2ncc3c(n2)-c2ccc(OC)cc2SC3)cc1 was tested, and the GI50 (HeLa) was greater than 20 µM, the GI50 (A-431) was greater than 20 µM and the GI50 (MSTO-211H) was greater than 20 µM. The GI50 (HUVEC) was greater than 20 µM.

COc1ccc2c(c1)SCc1cnc(-c3ccc(Cl)cc3)nc1-2 was tested, and the GI50 (HeLa) was greater than 20 µM, the GI50 (A-431) was greater than 20 µM and the GI50 (MSTO-211H) was greater than 20 µM. It also gave a GI50 (HUVEC) greater than 20 µM.

In the case of COc1ccc(Nc2ncc3c(n2)-c2ccc(Cl)cc2SC3)cc1, the IC50 [16] is reported as 21.6 µM, the GI50 (HeLa) is reported as 2.1 µM and the GI50 (A-431) is reported as 5.8 µM. The GI50 (MSTO-211H) was greater than 20 µM, the IC50 [1] was greater than 50 µM and the GI50 (HUVEC) was 16.4 µM.
